Data as given in US20100093642A1, “NOVEL POLYPEPTIDES” (priority 2006, published 2010).
No end group written: not given here.

Assays:
S. aureus (ATCC 9144) = type: cell-based, Staphylococcus aureus; settings: ATCC 9144
Method: (§1) The antibacterial activities of the different peptides were determined by continuous monitoring of bacterial growth with a Bioscreen C microbiology reader (Labsystems Oy, Helsinki, Finland). The test was performed in 100-well flat-bottomed honeycomb plates, in which 50 μl of test fractions were incubated with 50 μl of a suspension of an actively growing culture of bacteria diluted in Mueller Hinton medium to a starting concentration of 3×10^4 cells per ml. […] [NT] 13032) and S. aureus (ATCC 9144), were chosen as test bacteria. […] Polymyxin B (Sigma, St.

[1] = test system: C. glutamicum (ATCC 13032); type: cell-based, Corynebacterium glutamicum
Method: as §1

E. coli (ATCC 25922) = type: cell-based, Escherichia coli
Method: as §1

Botrytis cinerea 101 = settings: 48 h
Method: (§2) The various derivates of P17 (brominated and non-brominated) were tested for their ability to inhibit fungal growth of the yeast strains Saccaharomyces cerevisiae sp, Candida albicans (ATCC 10231) and Rodotorula sp., and the filamentous strains Botrytis cinerea 101, Penicillium rogveforti, and Fusarium sp. All strains, except C. albicans, were a gift from Prof. A. Tronsmo (The Norwegian University of Life Sciences, Ås, Norway). The fungi were cultivated on potato dextrose agar, supplemented with 2% glucose, at room temperature. Before antifungal testing, the fungi were dissolved in potato dextrose broth (Difco) at half-strength. Cell concentration was determined and adjusted after counting in a Bürker chamber. The filamentous fungi were filtered through a piece of cotton before counting. An aliquot of 50 μl of fungal spores (final concentration 2×10^5 spores per ml) were inoculated in microtiter plates (96 wells) along with 50 μl peptide solution. Peptides, dissolved in distilled water, were tested at final concentrations (two-fold dilutions) ranging from 50 μM to 0.1 μM. Cultures were grown in the dark (without shaking) and with a moist chamber at 25° C. (37° C. for C. albicans). Growth inhibition was determined microscopically after 48 h of incubation. MIC was determined as the lowest concentration of peptide resulting in 50% inhibition of visible growth.

Saccharomyces cerevisiae = settings: 48 h
Method: as §2

[2] = test system: Candida albicans (ATCC 10231); settings: ATCC 10231, 48 h
Method: as §2

TNF-α = experiment: Inhibition of LPS induced TNF-α response in THP-1 cells (ELISA); type: cell-based, human; settings: Ratio TC50 (THP-1)/EC50 (anti-TNFα)
Method: FIG. 12. Antiinnflammatory response measured as inhibition of tumor necrosis factor alpha (TNF-α) response in THP-1 cells after stimulation with LPS. THP-1 cells (1×10^6 cells/ml) were treated with P17 derivates in different concentrations for 1 hour, and subsequently stimulated with 100 ng/ml LPS for 6 hours. LPS was used as control for induction of TNF-α. (set as 100% response), RPMI media was used as negative (non-stimulated) control, and cycloheximide (Chx, 10 μg/ml) was used as a an inhibitory control for LPS induced TNF-α. The data presented are the average of two parallells. (A) The effect of the peptides P17 HC and P17 HC (1-20). (B) The effect of the peptides P17 HC (11-20) and P17 HC-Br.
The THP-1 cells (ATCC, TIB-202) were maintained in suspension in RPMI-1640 medium with 25 mM HEPES and 2 mM Glutamax I supplemented with 10% FBS (growth medium) in a humidified atmosphere of 5% CO2 at 37° C. Cells to be used in the assay were grown to a density of 8×10^5-1×10^6 cells/ml. The cells were centrifuged for 7 min at 200 g and the cell pellet was resuspended to a concentration of 10^6 cells/ml in RPMI-1640 with 10% FBS.
To allow examination of antiinflammatory effects of the peptides on basal and stimulated cytokine production, peptide-treated macrophages were cultured in the presence of LPS and the levels of TNF-α were measured. The primary screening was based on a mammalian cell line; the human THP-1 line. This line is of monocyte/macrophage origin and responds to various stimuli by increased production of cytokines, like TNF-α and the IL-1β, (Wang et al. 2000). To induce monocyte-macrophage differentiation, THP-1 cells were cultured in 96-well culture plates (10^6 cells/well) in a volume of 100 μl RPMI 1640 medium, containing 50 ng/ml PMA (which is known to induce the maturation of monocytes) and incubated in a humidified atmosphere of 5% CO2, at 37° C. for 48 hours. The medium was then removed and the cells were washed with PBS, added 100 μl fresh medium (without PMA) and incubated for another 24 hours. Medium was removed and the adherent macrophages were treated with 100 μl of peptide solution (concentrations ranging from 0 to 400 μg/ml), diluted in RPMI-1640 medium with 25 mM HEPES and 2 mM Glutamax I, but without […] (assay medium). After incubation at 37° C. for 1 hour, the cells were added LPS (0.1 μg/ml) and further incubated for 6 hours. […] TNF-α concentrations were quantified by the Human TNF-α ELISA MAX kit (BioLegend), according to the manufacturer's instructions. Duplicate readings for each standard, control and sample were recorded. The average absorbance for each set of standards, controls, and samples was calculated using a standard curve. Concentrations were determined by extrapolation on the standard curve.

[3] = test system: human breast malignant carcinoma cell line MCF-7; type: cell-based; settings: 24 h
Method: The cytotoxic effects of the peptides on different human tumour cells were measured using the MTT colorimetric assay (Mosmann, 1983). […] Dissolved MIT is converted to an insoluble purple formazan by cleavage of the tetrazolium ring by dehydrogenase enzymes. This water insoluble formazan can be solubilized using isopropanol or other solvents and the dissolved material is measured spectrophotometrically. The absorbance was measured as a function of concentration of converted dye. The conversion of the soluble dye to the insoluble purple formazan is utilized in assays for measurement of cell proliferation. […] We used this assay to measure the degree of cell death caused by the peptides. MCF-7 was maintained in EMEM, A2058 in DMEM and […]-29 in RPMI-1640 medium supplemented with 10% heat inactivated […] and 1% L-glutamine-L-alanine in a humidified atmosphere of 5% CO2 at 37° C. The human embryonic fibroblast cell line, MRC-5 (which is normal fibroblasts), was cultured as a monolayer in MEM medium, under the same conditions as described for the tumour cell lines. Cells to be used in the assay were grown to a minimum of 75% confluency, trypsinated and split to single cell suspension, counted and centrifuged at 1500 rpm for 10 min. The cell pellet was resuspended to a concentration of 2×10^5 cells/ml (HT-29) or 1×10^5 (MRC-5, MCF7 and A2058) in DMEM without FBS and L-glutamine-L-alanine (assay-medium). All cell lines were routinely tested for mycoplasma infection using a PCR-based mycoplasma detection kit (MycoSensor PCR Assay Kit, Stratagene), following the supplier's instructions. All cell lines were mycoplasma free. The cytotoxicity was measured using the MTT method (Mosmann, 1983), with minor modifications. Different human tumour cells (1-2×10^5) were applied in 96-well culture plates in a volume of 100 μl DMEM medium and incubated at 37° C. for 24 hours. The medium was removed and the cells were treated with 100 μl of peptide solution (concentrations ranging from 0 to 200 μg/ml), diluted in a) RPMI-1640 medium supplemented with 5% heat inactivated FBS, or b) RPMI-1640 medium without FBS. The plates were incubated at 37° C. for 24 hours. Cells treated with Triton X-100 (1%) was used as positive control (100% killing) whereas cells plus medium only were used as negative control. […] A volume of 70 μl of the supernatant was then removed and […] (0.04 M HCl in isopropanol) added to each well. The plate was placed on a shaker for 1 hour at room temperature and read spectrophotometrically at 590 nm in a microtiter plate reader (DTX880 Multimode Detector, Beckman Coulter).

Pseudomonas aeruginosa = type: cell-based
Method: as §1

Sequence: SHAVKSGIHA [P17 HC (11-20)]
- Minimal inhibitory concentration, S. aureus (S. aureus (ATCC 9144)): >100 µM
- Minimal inhibitory concentration, C. glutamicum [1]: >100 µM
- Minimal inhibitory concentration, E. coli (E. coli (ATCC 25922)): >100 µM
- Minimal inhibitory concentration (MIC), Botrytis cinerea (Botrytis cinerea 101): >100 µM
- Minimal inhibitory concentration (MIC), Saccharomyces cerevisiae (Saccharomyces cerevisiae): >100 µM
- Minimal inhibitory concentration (MIC), Candida albicans [2]: >100 µM
- Therapeutic index TC50/EC50 (TNF-α): >2.2
- IC50 [3]: 103 µM
- Minimal inhibitory concentration, P. aeruginosa (Pseudomonas aeruginosa): >100 µM
